In US20250019385A1, “SPIROCYCLIC ANNULATED 2-AMINO-3-CYANO THIOPHENES AND DERIVATIVES FOR THE TREATMENT OF CANCER” (Boehringer Ingelheim International GmbH, priority 2023, published 2025):

Legend:
[1] = system: LOVO cells; assay: LOVO CTG proliferation assay (120 h) (CRC, G13D); format: cell-based; conditions: Homo sapiens
Protocol: (§1) LOVO cells (ATCC No. CCL-229) are dispensed into black 384-well plates, flat and clear bottom (Greiner, PNr. 781091) at a density of 1000 cells per well in 60 μl DMEM (Sigma D6429)+10% FCS (fetal calf serum, HyClone, SH30084.03). Cells are incubated overnight at 37° C. in a humidified tissue culture incubator at 5% CO2. Compounds (10 mM stock in DMSO) are added at logarithmic dose series using the ECHO acoustic liquid handler system (Beckman Coulter), normalizing for added DMSO and including DMSO controls. All compound treatments are performed in technical duplicates. For the TO time point measurement, untreated cells are analyzed at the time of compound addition. Plates are incubated for 120 h, and cell viability is measured using CellTiter-Glo luminescent cell viability reagent (Promega product code G7570). Viability (stated as percent of control) is defined as relative luminescence units RLU of each well divided by the RLU of cells in DMSO controls. IC50 values are determined from viability measurements by non-linear regression using a four-parameter model.
(§2) IC50 values of representative compounds according to the invention measured with these assays in the indicated cell lines are presented in Table 46.

[2] = system: SK-CO-1 cells; assay: SK-CO-1 CTG proliferation assay (120 h) (CRC, G12V); format: cell-based; conditions: Homo sapiens
Protocol: as §1, with “SK—CO-1” for “LOVO”, “HTB-39)” for “No. CCL-229)”, “500” for “1000”, “EMEM” for “DMEM”, “M5650)+10%” for “D6429)+10%”
as §2

[3] = system: NCI-H358 cells; assay: NCI-H358 CTG proliferation assay (120 h) (NSCLC, G12C); format: cell-based; conditions: Homo sapiens
Protocol: as §1, with “NCI-H358” for “LOVO”, “CRL-5807)” for “CCL-229)”, “200” for “1000”, “RPMI-1640 ATCC-Formulation (Gibco #A10491)+10%” for “DMEM (Sigma D6429)+10%”, “serum).” for “serum, HyClone, SH30084.03).”
as §2

[4] = molecular target: KRAS (G12D)::SOS1 protein-protein interaction (Homo sapiens (Human), UniProt P01116, G12D); assay: KRAS::SOS1 AlphaScreen binding assay (KRAS G12D); conditions: GDP
Sequence of KRAS (G12D)::SOS1 protein-protein interaction (P01116 other isoform, or with tags, fused parts or gaps G12D): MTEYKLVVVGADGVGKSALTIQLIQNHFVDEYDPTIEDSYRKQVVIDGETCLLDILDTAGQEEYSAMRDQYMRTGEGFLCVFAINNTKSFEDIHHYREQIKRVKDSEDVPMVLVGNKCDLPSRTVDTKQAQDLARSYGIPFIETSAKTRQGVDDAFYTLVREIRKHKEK
Source text: This assay can be used to examine the potency with which compounds according to the invention binding to (mutated) KRAS inhibit the protein-protein interaction between SOS1 and (mutated) KRAS e.g. KRAS G12C, KRAS G12D. […] Low IC50 values in this assay setting are indicative of strong inhibition of protein-protein interaction between SOS1 and KRAS:
These assays measure the inhibitory effect of compounds on KRAS mutant protein-protein interactions using the Alpha Screen technology by Perkin Elmer.
The following (mutant) enzyme forms of KRAS and interacting proteins are used in these assays at the given concentrations:
KRAS (G12D) 1-169, N-terminal 6His-tag, C-terminal avi-tag (Xtal BioStructures, Inc.); final assay concentration 10 nM and SOS1 564-1049, N-terminal 229 GST-tag, TEV cleavage site (Viva Biotech Ltd); final assay concentration 5 nM;
Test compounds dissolved in DMSO are dispensed onto assay plates (Proxiplate 384 PLUS, white, PerkinElmer; 6008289) using an Access Labcyte Workstation with the Labcyte Echo 55x. For the chosen highest assay concentration of 100 μM, 150 nL of compound solution are transferred from a 10 mM DMSO compound stock solution. A series of eleven fivefold dilutions per compound are transferred to the assay plate, compound dilutions are tested in duplicates. DMSO are added as backfill to a total volume of 150 nL.
The assays run on a fully automated robotic system in a darkened room below 100 Lux. To 150 nl of compound dilution 10 μl of a mix including KRAS mutant protein, SOS1 (final assay concentrations see above) and GDP nucleotide (Sigma G7127; final assay concentration 10 μM) in assay buffer (1×PBS, 0.1% BSA, 0.05% Tween 20) are added into columns 1-24.
After 30 minutes incubation time 5 μl of Alpha Screen bead mix in assay buffer are added into columns 1-23. Bead mix consists of AlphaLISA Glutathione Acceptor Beads (PerkinElmer, Cat No AL109) and AlphaScreen Streptavidin Donor Beads (PerkinElmer Cat No 6760002) in assay buffer at a final assay concentration of 10 μg/mL each.
Plates are kept at room temperature in a darkened incubator. After an additional 60 minutes incubation time the signal is measured in a PerkinElmer Envision HTS Multilabel Reader using the AlphaScreen specs from PerkinElmer.
Each plate contains up to 16 wells of a negative control depending on the dilution procedure (platewise or serial) (DMSO instead of test compound; with KRAS mutant::SOS1 GOP mix and bead mix; column 23) and 16 wells of a positive control (DMSO instead of test compound; with KRAS mutant::SOS1 GOP mix w/o bead mix; column 24).
As internal control known inhibitors of KRAS mutant::SOS1 interaction can be measured on each compound plate.
IC50 values are calculated and analyzed with Boehringer Ingelheim's MEGALAB C50 application using a 4 parametric logistic model.
Tables of example compounds disclosed herein contain IC50 values determined using the above assays (see Table 43).

| Compound | IC50 [1] | IC50 [2] | IC50 [3] | IC50 [4] |
| --- | --- | --- | --- | --- |
| C[C@H](Oc1nc(-c2onc3c2CCC[C@@]32CCCc3sc(N)c(C#N)c32)nc2c1n(C)c(=O)n2[C@@H]1CCOC1)[C@@H]1CCCN1C [I-20] | 6 nM | 3 nM | 4 nM | 1 nM |
| C[C@H](Oc1nc(-c2onc3c2CCC[C@@]32CCCc3sc(N)c(C#N)c32)nc2c1n(C)c(=O)n2[C@@H]1CCOC1)[C@@H]1C[C@@H](F)CN1C [I-22] | 43 nM | 9 nM | 7 nM | 2 nM |
| CO[C@H]1CCN(C)[C@@H]1[C@H](C)Oc1nc(-c2onc3c2CCC[C@@]32CCCc3sc(N)c(C#N)c32)nc2c1n(C)c(=O)n2[C@@H]1CCOC1 [I-23] | 10 nM | 6 nM | 4 nM | 1 nM |
| C[C@H](Oc1nc(-c2onc3c2CCC[C@@]32CCCc3sc(N)c(C#N)c32)nc2c1n(C)c(=O)n2C1COC1)[C@@H]1CCCN1C [I-24] | 235 nM | 75 nM | 93 nM | 3 nM |
| C[C@H](Oc1nc(-c2onc3c2CCC[C@@]32CCCc3sc(N)c(C#N)c32)nc2c1n(C)c(=O)n2[C@@H]1CCOC1)[C@@H]1CC[C@H](C)N1C [I-26] | 11 nM | 10 nM | 7 nM | 1 nM |
| C[C@H](Oc1nc(-c2onc3c2CCC[C@@]32CCCc3sc(N)c(C#N)c32)nc2c1n(C)c(=O)n2[C@@H]1CCOC1)[C@@H]1C[C@H](F)CN1C [I-27] | 52 nM | 55 nM | 39 nM | 2 nM |
| C[C@H](Oc1nc(-c2onc3c2CCC[C@@]32CCCc3sc(N)c(C#N)c32)nc2c1n(C)c(=O)n2[C@@H]1CCOC1)[C@@H]1C[C@@H]2C[C@@H]2N1C [I-28] | 105 nM | 67 nM | 55 nM | 4 nM |
| C[C@H](Oc1nc(-c2onc3c2CCC[C@@]32CCCc3sc(N)c(C#N)c32)nc2c1n(C)c(=O)n2[C@@]12COC[C@@H]1C2)[C@@H]1CCCN1C [I-29] | 4 nM | 1 nM | 2 nM | 1 nM |
| CO[C@H]1C[C@@H](n2c(=O)n(C)c3c(O[C@@H](C)[C@@H]4CCCN4C)nc(-c4onc5c4CCC[C@@]54CCCc5sc(N)c(C#N)c54)nc32)C1 [I-31] | 36 nM | 94 nM | 60 nM | 1 nM |
| CC(C)n1c(=O)n([C@@H]2CCOC2)c2nc(-c3onc4c3CCC[C@@]43CCCc4sc(N)c(C#N)c43)nc(O[C@@H](C)[C@@H]3CCCN3C)c21 [I-32] | 25 nM | 43 nM | 32 nM | 2 nM |
| C[C@H](Oc1nc(-c2onc3c2CCC[C@@]32CCCc3sc(N)c(C#N)c32)nc2c1N(C)C(=O)CN2[C@@H]1CCOC1)[C@@H]1CCCN1C [I-37] | 31 nM | 323 nM | 232 nM | 8 nM |
| C[C@H](Oc1nc(-c2onc3c2CCC[C@@]32CCCc3sc(N)c(C#N)c32)nc2c1ncn2[C@@H]1CCOC1)[C@@H]1CCCN1C [I-38] | 114 nM | 32 nM | 9 nM | 2 nM |
| Cc1nc2c(O[C@@H](C)[C@@H]3CCCN3C)nc(-c3onc4c3CCC[C@@]43CCCc4sc(N)c(C#N)c43)nc2n1[C@@H]1CCOC1 [I-39] | 19 nM | 14 nM | 19 nM | 1 nM |
| Cc1cc2c(O[C@@H](C)[C@@H]3CCCN3C)nc(-c3onc4c3CCC[C@@]43CCCc4sc(N)c(C#N)c43)nc2n1[C@@H]1CCOC1 [I-40] | 43 nM | 39 nM | 17 nM | 2 nM |
| Cc1cn([C@@H]2CCOC2)c2nc(-c3onc4c3CCC[C@@]43CCCc4sc(N)c(C#N)c43)nc(O[C@@H](C)[C@@H]3CCCN3C)c12 [I-41] | 348 nM | 18 nM | 294 nM | 3 nM |
| Cc1nn([C@@H]2CCOC2)c2nc(-c3onc4c3CCC[C@@]43CCCc4sc(N)c(C#N)c43)nc(O[C@@H](C)[C@@H]3CCCN3C)c12 [I-42] | 107 nM | 46 nM | 21 nM | 3 nM |

Next, values leading:

| IC50 [1] | IC50 [2] | IC50 [3] | IC50 [4] | Compound |
| --- | --- | --- | --- | --- |
| 9 nM | 5 nM | 3 nM | 1 nM | CCn1c(=O)n([C@@H]2CCOC2)c2nc(-c3onc4c3CCC[C@@]43CCCc4sc(N)c(C#N)c43)nc(O[C@@H](C)[C@@H]3CCCN3C)c21 [I-21] |
| 55 nM | 11 nM | 6 nM | 2 nM | C[C@H](Oc1nc(-c2onc3c2CCC[C@@]32CCCc3sc(N)c(C#N)c32)nc2c1n(C)c(=O)n2[C@@H]1CCOC1)C12CCCN1CCC2 [I-25] |
| 7 nM | 11 nM | 7 nM | 2 nM | CCn1c(=O)n([C@@H]2CCCOC2)c2nc(-c3onc4c3CCC[C@@]43CCCc4sc(N)c(C#N)c43)nc(O[C@@H](C)[C@@H]3CCCN3C)c21 [I-30] |
| 891 nM | 911 nM | 921 nM | 126 nM | CCn1c(=O)n([C@@H]2CCCOC2)c2nc(-c3onc4c3CCC[C@@]43CCCc4sc(N)c(C#N)c43)nc(OC[C@@]34CCCN3C[C@H](F)C4)c21 [I-33] |
| 1340 nM | 273 nM | 475 nM | 22 nM | CCn1c(=O)n([C@@H]2CCCOC2)c2nc(-c3onc4c3CCC[C@@]43CCCc4sc(N)c(C#N)c43)nc(OCC34CCCN3CCC4)c21 [I-34] |
| 120 nM | 185 nM | 232 nM | 7 nM | CCn1c(=O)n([C@@H]2CCCOC2)c2nc(-c3onc4c3CCC[C@@]43CCCc4sc(N)c(C#N)c43)nc(OCC3(CN4CCCC4)CC3)c21 [I-35] |
| 9 nM | 14 nM | 38 nM | 2 nM | CCn1c(=O)n([C@@H]2CCCOC2)c2nc(-c3onc4c3CCC[C@@]43CCCc4sc(N)c(C#N)c43)nc(O[C@@H](C)C34CCCN3CCC4)c21 [I-36] |
